Values joined by “and” are separate entries in the source; they are usually repeats but may differ in a detail not shown here. Identical values can stand only once. Inconclusive results and toxic doses are left out.
Tested on: CD2F1 mice, L1210 leukemia sc, survival T/C
Test: NCI In Vivo Anticancer Drug Screen. Data for tumor model L1210 Leukemia (subcutaneous) in CD2F1 (CDF1) mice
Details: higher = longer survival
In short: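 Antitumor activity is scored in tumor-bearing mice by comparing survival or tumor size of treated animals against vehicle-treated controls, reported as T/C.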

CN(Cc1cnc2nc(N)nc(N)c2n1)c1ccc(C(=O)N[C@@H](CCC(=O)O)C(=O)O)cc1
T/C (endpoint: mean survival time, dose: 1.08 mg/kg/injection, schedule: Q01DX009 (sc), vehicle: other): 170 % of control | T/C (endpoint: mean survival time, dose: 1.8 mg/kg/injection, schedule: Q01DX009 (sc), vehicle: other): 158 % of control | T/C (endpoint: mean survival time, dose: 3.0 mg/kg/injection, schedule: Q01DX009 (sc), vehicle: other): 168 % of control | T/C (endpoint: mean survival time, dose: 5.0 mg/kg/injection, schedule: Q01DX017 (sc), vehicle: other): 124 % of control | T/C (endpoint: median survival time, dose: 0.08 mg/kg/injection, schedule: Q## X Z (sc), vehicle: other): 155 % of control | T/C (endpoint: median survival time, dose: 0.1 mg/kg/injection, schedule: Q#A X Z (oral), vehicle: other): 104 % of control | T/C (endpoint: median survival time, dose: 0.1 mg/kg/injection, schedule: Q#A X Z (sc), vehicle: other): 122 % of control | T/C (endpoint: median survival time, dose: 0.14 mg/kg/injection, schedule: Q## X Z (sc), vehicle: other): 155 % of control | T/C (endpoint: median survival time, dose: 0.16 mg/kg/injection, schedule: Q#A X Z (oral), vehicle: other): 109 % of control | T/C (endpoint: median survival time, dose: 0.23 mg/kg/injection, schedule: Q#A X Z (sc), vehicle: other): 122 % of control | T/C (endpoint: median survival time, dose: 0.25 mg/kg/injection, schedule: Q01DX Z (sc), vehicle: other): 112 % of control and 116 % of control | T/C (endpoint: median survival time, dose: 0.27 mg/kg/injection, schedule: Q01DX Z (oral), vehicle: other): 109 % of control | T/C (endpoint: median survival time, dose: 0.27 mg/kg/injection, schedule: Q#A X Z (oral), vehicle: other): 122 % of control | T/C (endpoint: median survival time, dose: 0.3 mg/kg/injection, schedule: Q01DX Z (sc), vehicle: sodium bicarbonate): 111 % of control | T/C (endpoint: median survival time, dose: 0.38 mg/kg/injection, schedule: Q01DX009 (ip), vehicle: sodium bicarbonate): 108 % of control | T/C (endpoint: median survival time, dose: 0.39 mg/kg/injection, schedule: Q01DX Z (ip), vehicle: other): 115 % of control | T/C (endpoint: median survival time, dose: 0.39 mg/kg/injection, schedule: Q01DX Z (iv), vehicle: other): 105 % of control | T/C (endpoint: median survival time, dose: 0.39 mg/kg/injection, schedule: Q01DX Z (oral), vehicle: other): 100 % of control | T/C (endpoint: median survival time, dose: 0.39 mg/kg/injection, schedule: Q02DX Z (sc), vehicle: other): 111 % of control | T/C (endpoint: median survival time, dose: 0.45 mg/kg/injection, schedule: Q01DX Z (oral), vehicle: other): 100 % of control | T/C (endpoint: median survival time, dose: 0.45 mg/kg/injection, schedule: Q#A X Z (sc), vehicle: other): 159 % of control | T/C (endpoint: median survival time, dose: 0.47 mg/kg/injection, schedule: Q01DX Z (oral), vehicle: other): 111 % of control | T/C (endpoint: median survival time, dose: 0.48 mg/kg/injection, schedule: Q01DX Z (oral), vehicle: other): 100 % of control | T/C (endpoint: median survival time, dose: 0.5 mg/kg/injection, schedule: Q01DX009 (ip), vehicle: sodium bicarbonate): 112 % of control | T/C (endpoint: median survival time, dose: 0.62 mg/kg/injection, schedule: Q01DX Z (sc), vehicle: other): 160 % of control | T/C (endpoint: median survival time, dose: 0.65 mg/kg/injection, schedule: Q01DX009 (sc), vehicle: other): 152 % of control | T/C (endpoint: median survival time, dose: 0.65 mg/kg/injection, schedule: Q01DX009 (sc), vehicle: sodium bicarbonate): 150 % of control | T/C (endpoint: median survival time, dose: 0.65 mg/kg/injection, schedule: Q01DX Z (iv), vehicle: other): 111 % of control | T/C (endpoint: median survival time, dose: 0.65 mg/kg/injection, schedule: Q01DX Z (oral), vehicle: other): 105 % of control | T/C (endpoint: median survival time, dose: 0.65 mg/kg/injection, schedule: Q02DX Z (sc), vehicle: other): 105 % of control | T/C (endpoint: median survival time, dose: 0.65 mg/kg/injection, schedule: Q## X Z (sc), vehicle: other): 122 % of control | T/C (endpoint: median survival time, dose: 0.65 mg/kg/injection, schedule: Q#A X Z (sc), vehicle: other): 161 % of control | T/C (endpoint: median survival time, dose: 0.75 mg/kg/injection, schedule: Q01DX009 (ip), vehicle: sodium bicarbonate): 113 % of control | T/C (endpoint: median survival time, dose: 0.75 mg/kg/injection, schedule: Q01DX Z (ip), vehicle: water): 175 % of control | T/C (endpoint: median survival time, dose: 0.76 mg/kg/injection, schedule: Q01DX Z (oral), vehicle: other): 122 % of control | T/C (endpoint: median survival time, dose: 0.76 mg/kg/injection, schedule: Q#A X Z (oral), vehicle: other): 150 % of control | T/C (endpoint: median survival time, dose: 0.79 mg/kg/injection, schedule: Q01DX Z (oral), vehicle: other): 105 % of control | T/C (endpoint: median survival time, dose: 1.08 mg/kg/injection, schedule: Q01DX009 (sc), vehicle: sodium bicarbonate): 171 % of control | T/C (endpoint: median survival time, dose: 1.08 mg/kg/injection, schedule: Q01DX Z (oral), vehicle: other): 110 % of control | T/C (endpoint: median survival time, dose: 1.25 mg/kg/injection, schedule: Q01DX Z (sc), vehicle: other): 180 % of control | T/C (endpoint: median survival time, dose: 1.26 mg/kg/injection, schedule: Q01DX Z (oral), vehicle: other): 168 % of control and 181 % of control | T/C (endpoint: median survival time, dose: 1.26 mg/kg/injection, schedule: Q01DX Z (sc), vehicle: other): 181 % of control | T/C (endpoint: median survival time, dose: 1.26 mg/kg/injection, schedule: Q#A X Z (oral), vehicle: other): 118 % of control | T/C (endpoint: median survival time, dose: 1.3 mg/kg/injection, schedule: Q01DX Z (oral), vehicle: other): 166 % of control | T/C (endpoint: median survival time, dose: 1.31 mg/kg/injection, schedule: Q01DX Z (oral), vehicle: other): 111 % of control | T/C (endpoint: median survival time, dose: 1.4 mg/kg/injection, schedule: Q01DX Z (sc), vehicle: sodium bicarbonate): 183 % of control | T/C (endpoint: median survival time, dose: 1.8 mg/kg/injection, schedule: Q01DX009 (sc), vehicle: other): 161 % of control | T/C (endpoint: median survival time, dose: 1.8 mg/kg/injection, schedule: Q01DX009 (sc), vehicle: sodium bicarbonate): 174 % of control and 177 % of control | T/C (endpoint: median survival time, dose: 1.8 mg/kg/injection, schedule: Q01DX Z (ip), vehicle: other): 175 % of control | T/C (endpoint: median survival time, dose: 1.8 mg/kg/injection, schedule: Q## X Z (sc), vehicle: other): 111 % of control | T/C (endpoint: median survival time, dose: 2.0 mg/kg/injection, schedule: Q01DX Z (sc), vehicle: other): 175 % of control and 177 % of control and 183 % of control | T/C (endpoint: median survival time, dose: 2.08 mg/kg/injection, schedule: Q01DX Z (sc), vehicle: other): 170 % of control | T/C (endpoint: median survival time, dose: 2.1 mg/kg/injection, schedule: Q01DX Z (oral), vehicle: other): 163 % of control | T/C (endpoint: median survival time, dose: 2.1 mg/kg/injection, schedule: Q01DX Z (sc), vehicle: other): 168 % of control | T/C (endpoint: median survival time, dose: 2.33 mg/kg/injection, schedule: Q01DX Z (sc), vehicle: sodium bicarbonate): 155 % of control | T/C (endpoint: median survival time, dose: 2.5 mg/kg/injection, schedule: Q01DX Z (sc), vehicle: other): 155 % of control | T/C (endpoint: median survival time, dose: 3.0 mg/kg/injection, schedule: Q01DX009 (ip), vehicle: saline with Tween-80): 173 % of control | T/C (endpoint: median survival time, dose: 3.0 mg/kg/injection, schedule: Q01DX009 (sc), vehicle: other): 179 % of control | T/C (endpoint: median survival time, dose: 3.0 mg/kg/injection, schedule: Q01DX009 (sc), vehicle: sodium bicarbonate): 183 % of control | T/C (endpoint: median survival time, dose: 3.0 mg/kg/injection, schedule: Q01DX Z (ip), vehicle: other): 150 % of control | T/C (endpoint: median survival time, dose: 3.0 mg/kg/injection, schedule: Q01DX Z (ip), vehicle: sodium bicarbonate): 105 % of control | T/C (endpoint: median survival time, dose: 3.0 mg/kg/injection, schedule: Q01DX Z (ip), vehicle: water): 120 % of control | T/C (endpoint: median survival time, dose: 3.0 mg/kg/injection, schedule: Q01DX Z (iv), vehicle: other): 155 % of control | T/C (endpoint: median survival time, dose: 3.0 mg/kg/injection, schedule: Q01DX Z (oral), vehicle: other): 170 % of control | T/C (endpoint: median survival time, dose: 3.0 mg/kg/injection, schedule: Q## X Z (sc), vehicle: other): 111 % of control | T/C (endpoint: median survival time, dose: 3.25 mg/kg/injection, schedule: Q01DX Z (sc), vehicle: other): 158 % of control | T/C (endpoint: median survival time, dose: 3.47 mg/kg/injection, schedule: Q01DX Z (sc), vehicle: other): 150 % of control | T/C (endpoint: median survival time, dose: 3.5 mg/kg/injection, schedule: Q01DX Z (sc), vehicle: other): 163 % of control | T/C (endpoint: median survival time, dose: 3.5 mg/kg/injection, schedule: Q03DX Z (oral), vehicle: other): 100 % of control | T/C (endpoint: median survival time, dose: 3.5 mg/kg/injection, schedule: Q#A X Z (oral), vehicle: other): 109 % of control | T/C (endpoint: median survival time, dose: 4.0 mg/kg/injection, schedule: Q01DX009 (ip), vehicle: saline with Tween-80): 168 % of control | T/C (endpoint: median survival time, dose: 4.0 mg/kg/injection, schedule: Q01DX009 (ip), vehicle: saline): 184 % of control | T/C (endpoint: median survival time, dose: 4.0 mg/kg/injection, schedule: Q01DX Z (sc), vehicle: other): 150 % of control and 155 % of control | T/C (endpoint: median survival time, dose: 5.0 mg/kg/injection, schedule: Q01DX009 (sc), vehicle: sodium bicarbonate): 116 % of control and 120 % of control | T/C (endpoint: median survival time, dose: 5.0 mg/kg/injection, schedule: Q01DX017 (sc), vehicle: other): 122 % of control | T/C (endpoint: median survival time, dose: 5.0 mg/kg/injection, schedule: Q## X Z (sc), vehicle: other): 111 % of control | T/C (endpoint: median survival time, dose: 5.83 mg/kg/injection, schedule: Q01DX Z (oral), vehicle: other): 118 % of control | T/C (endpoint: median survival time, dose: 5.83 mg/kg/injection, schedule: Q03DX Z (oral), vehicle: other): 100 % of control | T/C (endpoint: median survival time, dose: 8.33 mg/kg/injection, schedule: Q01DX Z (iv), vehicle: other): 120 % of control | T/C (endpoint: median survival time, dose: 8.33 mg/kg/injection, schedule: Q01DX Z (oral), vehicle: other): 150 % of control | T/C (endpoint: median survival time, dose: 8.4 mg/kg/injection, schedule: Q## X Z (sc), vehicle: other): 122 % of control | T/C (endpoint: median survival time, dose: 9.72 mg/kg/injection, schedule: Q01DX Z (oral), vehicle: other): 118 % of control | T/C (endpoint: median survival time, dose: 14.0 mg/kg/injection, schedule: Q## X Z (sc), vehicle: other): 122 % of control | T/C (endpoint: median survival time, dose: 16.2 mg/kg/injection, schedule: Q03DX Z (oral), vehicle: other): 113 % of control | T/C (endpoint: median survival time, dose: 23.0 mg/kg/injection, schedule: Q01DX001 (sc), vehicle: other): 122 % of control | T/C (endpoint: median survival time, dose: 23.0 mg/kg/injection, schedule: Q## X Z (sc), vehicle: other): 122 % of control | T/C (endpoint: median survival time, dose: 65.0 mg/kg/injection, schedule: Q07DX Z (sc), vehicle: other): 150 % of control | T/C (endpoint: median survival time, dose: 108.0 mg/kg/injection, schedule: Q01DX001 (sc), vehicle: other): 122 % of control | T/C (endpoint: median survival time, dose: 108.0 mg/kg/injection, schedule: Q07DX Z (sc), vehicle: other): 122 % of control | T/C (endpoint: median survival time, dose: 180.0 mg/kg/injection, schedule: Q01DX001 (sc), vehicle: other): 116 % of control | T/C (endpoint: median survival time, dose: 400.0 mg/kg/injection, schedule: Q01DX009 (ip), vehicle: sodium bicarbonate): 158 % of control
